Measurements: patent publication US20080220416A1, “Compositions for Inhibiting Cell Growth and Inducing Apoptosis in Cancer Cells and Methods of Use Thereof” (THE BOARD OF TRUSTEES OF THE UNIVERSITY OF ILLINOI, priority 2004, published 2008)
Square brackets hold non-standard residues; d marks the D form. Peptide text beside a SMILES is read from it. * marks the point of attachment. Nle = CCCC[C@H](N)C(=O)O; Cbz = O=C(OCc1ccccc1)*

How the values were obtained:
CaSki cells = assay: LY411,575 combinations in CaSki cells, growth inhibition and isobologram analysis; type: cell-based, human; conditions: CaSki
Description: To evaluate the possibility that inhibition of Notch signaling may sensitize advanced cervical cancers to the effect of cisplatin chemotherapy because Notch-1 protects these cells from apoptosis through the AKT and NF-κB pathways, a non-peptide, benzodiazepine gamma-secretase inhibitor, LY411,575 (Wong et al., 2004, J Biol. Chem. 279:12876-82) was tested in combination with a AKT inhibitor (AKT inhibitor I) or a proteasome inhibitor (MG-132) for effects on cell growth. The latter class of drugs is thought to act primarily by preventing NF-KB activation (Adams, J, 2002, Curr Opin Oncol 14:628-634; Richardson, P, 2003, Cancer Treat Rev 29 Suppl 1:33-39) caused by proteasome-mediated degradation of IκB.
To determine whether LY411,575 potentiates the effect of AKT inhibitor I or MG-132, CaSki cells were treated with (a) LY411,575 (6.25 μM to 50 μM) and AKT inhibitor 1 (0.5 μM to 75 μM), or (b) LY411,575 (1.5 μM to 200 μM) and MG-132 (0.05 μM to 0.2). Following the drug treatment, the cells were tested for growth inhibition as described above. LY411,575 was synthesized according to methods well known in the art (e.g., see WO-09828268, which is incorporated by reference), and AKT inhibitor I and MG-132 were purchased from Calbiochem.
The IC50 values of LY411,575 in the presence of various concentrations of AKT inhibitor I or MG-132 were measured. […]

RJ002L melanoma cells = assay: Bortezomib in RJ002L melanoma cells: sub-G0 DNA content by FACS and kinetic analysis; type: cell-based, human
Description: To assess the effect of proteasome inhibitors on the cell lines, the cells were grown in suitable culture media as described above. Highly proliferating cells (i.e., cells that had reached approximately 30% confluency) were exposed to the inhibitors as described below. The culture media was replenished with media containing proteasome inhibitors at various concentrations and the cells were incubated for 24 hours prior to harvesting the cells for further analysis.
Following treatment with the proteasome inhibitors, the melanoma and melanocyte cell cultures were assayed for apoptotic cells using the APO TARGET Annexin V FITC staining kit (Biosource, Camarillo, Calif.) according to the manufacturer's instructions followed by flow cytometric analysis using FACScaliber (Becton Dickinson, Palo Alto, Calif.) as described in Qin, J. et al., 2001, Nat Med 7: 385-386. In some cases, cell cycle and apoptosis analysis was measured using propidium iodide staining and flow cytometry as described. Cells with DNA content less than the G0 amount of untreated cells were considered apoptotic. For cell analysis, DNA histograms were analyzed using MultiCycle for Windows (Phoenix Flow Systems, San Diego, Calif.) as described in Denning, M. F. et al., 1998, J Biol Chem 273: 29995-30002.
The ability of bortezomib to induce apoptosis in RJ002L cells was assayed by kinetic analysis. RJ002L cells were incubated with 1.0 μM bortezomib for 24 hours. At various time points during the 24 hours, the cells were assayed for apoptosis using APO TARGET Annexin V-FITC staining kits (Biosource, Camerillo, Calif.) according to manufacturer's instructions. The relative percentage of cells undergoing apoptosis was quantified by flow cytometric analysis using FACSCaliber (Becton Dickinson, Palo Alto, Calif.) as described in Qin J et al., 2004, Mol Cancer Ther 3:895-902.

[1] = test system: C8161 melanoma tumor xenograft; assay: C8161 melanoma tumor xenograft in Nude mice, z-Leu-Leu-Nle-CHO injections; type: in vivo
Description: Assessment of tumor formation in Nude mice was performed by adapting the method described in Hendrix, M. J. et al., 1997, Am J Pathol 150:483-495. Tumors were established in Nude mice as follows. Briefly, 1×10^6 aggressive melanoma cells (C8161) (ATCC, Rockville, Md.) were injected subcutaneously in Nude mice on day 0, and the tumors were allowed to grow for 1 week. Beginning on day 8, mice received injections (100 μl) of DMSO carrier only (control group) or z-Leu-Leu-Nle-CHO (1 mM in DMSO) (Calbiochem, LaJolla, Calif.) (experimental group) every other day for 1 week. Tumor sizes (mm^2) were determined on day 7 prior to injections with or z-Leu-Leu-Nle-CHO or DMSO, and on day 14. Average tumor size for both groups was normalized, and size of tumors at 2 weeks was averaged. Detection of apoptosis in tissue sections was performed using TUNEL staining as described in Wrone-Smith et al, 1997, Am J Pathol. 151:1321-9.

Notch-1 = Notch-1 cleavage in CaSki cells (Western blot N^TM, N^IC); type: cell-based, human; conditions: 0-5 μM, 24 h
Description: The CaSki human cervical cancer cells were incubated for 24 h with various concentrations (0-5 μM) of the dual inhibitor z-Leu-Leu-Nle-CHO (Calbiochem) (FIG. 13A). The cells were then collected and assayed for Notch-1 and Notch-4 expression by Western blotting. Immunoblotting was performed using antibodies to the transmembrane portion of Notch-1 (N^TM) (Santa Cruz Biotechnology (Santa Cruz, Calif.)), or the intracellular portion of Notch-1 (N^IC) (Abcam, Inc. (Cambridge, Mass.)). Secondary anti-goat, anti-rnouse, anti-rabbit and anti-rat antibodies (IgG-HRP) were purchased from Vector Laboratories (Burlingame, Calif.), Santa Cruz Biotechnology and Amersham Biosciences. For Western blot analysis, equal amounts of protein extracted from each sample (20 μg) were loaded into pre-cast 7% NuPAGE Tris-acetate gels or 4-12% NuPAGE Bis-tris gels (Invitrogen). Proteins were separated by SDS-PAGE and transferred to polyvinylidene difluoride membranes (Bio-Rad, Hercules, Calif.) using Invitrogen's buffering system. The membranes were incubated with the indicated primary antibodies, washed, and visualized by incubation with horseradish peroxidase-conjugated secondary antibodies and chemiluminescent reagents (Roche Diagnostics Corporation, Indianapolis, Ind.).

## CC(C)C[C@@H](C=O)NC(=O)[C@H](CC(C)C)NC(=O)[C@H](CC(C)C)NC(=O)OCc1ccccc1 [MG-132, benzoxycarbonyl-Leucyl-Leucyl-Leucyl-aldehyde] (Cbz-Leu-Leu-Leu-aldehyde)
CaSki cells
  combination with LY411,575 in cytotoxicity assays / isobologram: striking synergism

## CC(C)C[C@H](NC(=O)[C@H](Cc1ccccc1)NC(=O)c1cnccn1)B(O)O [bortezomib, N-(2-pyrazine)carbonyl-L-phenylalanine-L-leucine boronic acid]
RJ002L melanoma cells; 0.01 μM, 24 hours
  cells with sub-G0 DNA content by FACS analysis: 2%
RJ002L melanoma cells; 0.1 μM, 24 hours
  apoptotic cells: 20%
RJ002L melanoma cells; 1 μM or 10 μM, 24 hours
  apoptotic cells: 29-30%
RJ002L melanoma cells; 1.0 μM, up to 24 hours
  kinetic analysis of apoptosis: prominent apoptosis was detected at 18- and 24-hr time points
RJ002L melanoma cells; 24 hours
  increase in apoptotic cells, 0.1 μM versus 0.01 μM: 10 fold

## CCCC[C@@H](C=O)NC(=O)[C@H](CC(C)C)NC(=O)[C@H](CC(C)C)NC(=O)OCc1ccccc1 [z-Leu-Leu-Nle-CHO, N-benzyloxycarbonyl-leucyl-leucyl-norleucinal] (Cbz-Leu-Leu-[Nle]-aldehyde)
[1]; 1 mM in DMSO, 100 μl every other day for 1 week, compared to DMSO, p=0.046, n=11
  average tumor size: significantly reduced tumor size
[1]; 1 week of treatment, 1 mM, versus DMSO carrier
  apoptosis in tumor by immunofluorescent TUNEL assay: High levels of apoptosis
Notch-1
  cleaved and transmembrane Notch-1: dose-dependent reduction in cleaved Notch-1
